Experimental data taken from US4151300A, “Acetohydroxamic acids” (Laboratoire L. Lafon, priority 1976, dated 1979).
“Also recorded” adds a separate entry of the source.

What was measured:
rats [1] = assay: interaction with apomorphine (stereotype behaviour in rats); type: in vivo
Experimental: (§1) The following text summarises a part of the results of the tests which were carried out with the products according to the invention, these products (unless otherwise stated) being administered intraperitoneally, in suspension in a gum solution (gum arabic), in a volume of 20 ml/kg in the case of mice and of 5 ml/kg in the case of rats.
Batches of six rats are each given a subcutaneous injection of apomorphine (0.5 mg/kg) 30 minutes after the administration of CRL 40,373.
Batches of 6 rats are given a subcutaneous injection of 0.5 mg/kg of apomorphine 30 minutes after the administration of CRL 40,385.

man = assay: clinical use in man; type: in vivo
central nervous system = assay: psychopharmacological study / behaviour; type: in vivo, mice; details: mouse, in vivo
catalepsy = assay: catalepsy, alone and after a neuroleptic agent; type: in vivo
rats [2] = assay: interaction with methylphenidate (stereotypies); type: in vivo; details: species not given
mice [3] = assay: interaction with oxotremorine (temperature, trembling, peripheral cholinergic symptoms); type: in vivo
rats [4] = assay: interaction with amphetamine (stereotypies in rats); type: in vivo
Experimental: as §1
30 minutes after the administration of CRL 40,373, amphetamine is injected intraperitoneally at a dose of 2 mg/kg.
Thirty minutes after the administration of CRL 40,385 the rats are given an intraperitoneal injection of 2 mg/kg of amphetamine (6 animals per dose).

mice [5] = assay: spontaneous motility (actimeter); type: in vivo; details: i.p.
Experimental: as §1
Thirty minutes after having been given CRL 40,373, the mice (6 per dose, 12 comparison animals) are placed in an actimeter, where their motility is recorded for half an hour.
Thirty minutes after having been given CRL 40,385, the mice are placed in actimeters where their motility is recorded for half an hour.

mice [6] = assay: traction (motor incoordination); type: in vivo, mice (EVIC CEBA strain); details: i.p.
mice [7] = assay: motility reduced by hypoxia treatment (motor recovery); type: in vivo; details: mice, i.p.
[8] = system: awake rats with spontaneous hypertension; assay: hypotensive action in awake rats with spontaneous hypertension; type: in vivo; details: 100 mg/kg orally
Experimental: In the tests reported below, CRL 40,385 was administered in suspension in a solution of gum arabic, in a volume of 2 ml/kg. The hypotensive action was studied in awake rats with spontaneous hypertension. One batch of 7 rats is given 100 mg/kg of CRL 40,385 orally, followed, 2 hours later, by a fresh dose of 100 mg/kg of this product.

[9] = toxicity (isolated mice, intraperitoneal); type: in vivo; details: mouse, in vivo, ip, isolated mice
Experimental: as §1

mice [10] = assay: toxicity (isolated mice, intraperitoneal); type: in vivo; details: mice, i.p., at the doses mentioned above (64-1,024 mg/kg)
Experimental: as §1

mice [11] = assay: electrical shock (convulsing effects); type: in vivo, mice (EVIC CEBA strain); details: mice, i.p., large dose
Experimental: as §1
(§2) The test is carried out on batches of 10 sensitive mice (EVIC CEBA strain), 30 minutes after the administration of CRL 40,373.
(§3) Batches of 10 mice are subjected to the test thirty minutes after having received CRL 40,385.

mice [12] = assay: interaction with reserpine (hypothermia, ptosis); type: in vivo
rats [13] = assay: prolonged conditioning to take avoiding action (shuttle box); type: in vivo
Text: Rats placed in a shuttle box are conditioned to avoid an electric shock by changing sides. The shock is preceded by a sound and light stimulus lasting 3 seconds, which ceases when sides are changed or after 8 seconds. The sequence is repeated every 20 seconds. Animals conditioned for several tens of minutes show a percentage of avoidance which is close to 100%. They continue to be subjected to the stimulus […] and gradually they reach a state in which they are no longer able to change sides during the period of 3 seconds during which no shock is delivered.
As a first approximation, such an effect can be likened to a resumption of conditioned activity in a tired animal.
Rats placed in a "shuttle box" are conditioned to avoid an electric shock lasting 5 seconds, by changing sides. The shock is preceded, for 3 seconds, by a sound and light stimulus which ceases when the rat changes side, or at the end of 8 seconds. The sequence repeats every 20 seconds. […] They continue to be subjected to the stimulus every 20 seconds and gradually they no longer succeed in avoiding the shock.
CRL 40,438 is then administered and any resumption of the avoidance movements is followed until the effect ceases.

mice [14] = assay: inter-group aggressiveness (number of fights); type: in vivo; details: mice, i.p.
Experimental: as §1
After three weeks' residence in each of the halves of a cage divided by an opaque partition, the mice receive CRL 40,373 thirty minutes before being brought together by withdrawing the partition.
After 18 days' residence on either side of a partition separating their cage in the middle, groups of 3 mice receive CRL 40,385 and are brought together half an hour later by withdrawing the partition, and the number of fights which take place in the course of 15 minutes is noted.

mice [15] = assay: four-plate test; type: in vivo, mice (EVIC CEBA strain); details: mice, i.p.
Experimental: as §1, §2, §3

mice [16] = assay: motility reduced by habituation to a cage (residual motility); type: in vivo; details: i.p., from 32 mg/kg upwards
Experimental: as §1
Mice which have remained for 18 hours in the actimeters are given CRL 40,373. They are immediately replaced in their cages and, after a period of half an hour, their motility is recorded for 30 minutes (6 animals per dose, 12 comparison animals).
After remaining for 18 hours in the actimeters, the mice receive CRL 40,385. Immediately afterwards they are replaced in their cage and half an hour afterwards the recording of the motility starts and is continued for 30 minutes.

[17] = toxicity in mice in groups; details: mouse, in vivo, ip
Experimental: as §1
The LD50 for intraperitoneal administration are as follows: […]

[18] = system: catalepsy induced by prochlorperazine; assay: anticataleptic effect (prochlorperazine-induced catalepsy); type: in vivo; details: i.p., 256 mg/kg
Experimental: CRL 40,385 or amantadine are administered intraperitoneally 4 hours and 30 minutes after the injection of prochlorperazine (12.5 mg/kg administered intraperitoneally). The catalepsy is assessed every 30 minutes by the plug test (9 cm), the four plug test, the test using parallel bars and the test of crossing the paws on the same side.

## O=C(CN1C(=O)NC(c2ccccc2)(c2ccccc2)C1=O)NO [CRL 40,382, 3-(5,5-Diphenyl-hydantoinyl)-acetohydroxamic acid]
Rats [1]; species not given
  effect of apomorphine (stereotypies): does not counteract the effect of apomorphine
man; tablet 250 mg, 2 to 3 tablets per day
  clinical result: used clinically with success as a sedative
Central nervous system
  psychopharmacological profile / conclusion: antipsychotic activity associated with a moderate sedative effect
catalepsy; after a preliminary dose of a neuroleptic agent
  cataleptigenic effects of a neuroleptic agent: boosts the cataleptigenic effects of a preliminary dose of a neuroleptic agent
catalepsy; in vivo
  catalepsy: does not in itself cause catalepsy; also recorded: absence of catalepsy
Rats [2]
  effect of methylphenidate (stereotypies): does not counteract the effect of apomorphine and of methylphenidate
Mice [3]; mouse, in vivo
  effects of oxotremorine: absence of antagonism to the effects of oxotremorine
Rats [4]; species not given
  amphetamine-induced stereotypies: antagonism to the stereotypies induced by amphetamine
  other effects of amphetamine (hypermotility, group toxicity): without altering the other effects of this substance (hypermotility, group toxicity)
Mice [5]
  spontaneous motility: moderate hypomotility
Mice [6]
  motor incoordination / incapacity: absence of catalepsy and of motor incapacity

## O=C(CC(=O)N(c1ccccc1)c1ccccc1)NO [CRL 40,385, α-(N,N-Diphenylcarbamoyl)-acetohydroxamic acid]
Mice [7]; Mus musculus, ip, read-out: dose at which improvement of motor recovery after hypoxia appears
  minimal effective dose: 32 mg/kg
Mice [7]; 32 mg/kg increasing up to 512 mg/kg
  motor recovery after hypoxia/anoxia by pressure reduction: causes an improvement in the motor recovery of mice
[8]
  hypotensive effect: hypotensive effect
[8]; 4 hours after second administration, from 166 mm Hg
  arterial pressure (minimum): 142 mm Hg
[8]; after first administration, from 364
  pulse rate: 334 beats/minute
[8]; after second administration
  pulse rate change: does not vary
  time to minimum arterial pressure: 4 h
[8]; after second administration, statistically significant
  reduction of arterial pressure: 13%
[8]; first administration
  average reduction of arterial pressure: 10%
[8]; first administration, statistically significant
  reduction of pulse rate: 8%
[9]
  LD50: 1500 mg/kg
Mice [10]
  mortality: no mortality whatsoever
Rats [1]; rats, i.p., large dose, apomorphine 0.5 mg/kg s.c.
  apomorphine-induced stereotypies: increase in the duration of the stereotypies induced by apomorphine
man; tablet or pill 100 mg, 2 to 3 per day
  clinical result: used clinically with success for anti-fatigue treatment
Mice [11]
  convulsing effects of the electrical shock: counteracts the convulsing effects of the electrical shock
Mice [12]; i.p.
  reserpine-induced ptosis: does not modify the intensity of the palpebral ptosis induced by reserpine
Mice [12]; i.p., 64, 128 and 256 mg/kg, reserpine 2.5 mg/kg i.p.
  reserpine-induced hypothermia: moderate antagonism towards reserpine-induced hypothermia
Rats [13]
  resumption of avoiding actions (prolonged avoidance test): causes a resumption of avoiding actions in animals
Mice [14]
  inter-group aggressiveness: reduces the aggressiveness
Central nervous system
  body temperature effect (product alone): does not have a hypothermic action
  psychopharmacological profile / conclusion: the most marked property is the anti-fatigue activity; also recorded: Some of its effects recall an anti-depressant type of activity, and others recall a psychostimulant type of activity; also recorded: psycho-stimulant properties
Mice [3]; mice, i.p.
  peripheral cholinergic symptoms of oxotremorine: does not modify the increase in salivation, lachrymation and defaecation
Mice [3]; mice, i.p., 128 mg/kg and above all 512 mg/kg, oxotremorine 0.5 mg/kg i.p.
  oxotremorine-induced trembling: a reduction in the intensity of the trembling movements produced by oxotremorine
Mice [3]; mice, i.p., 32 and 128 mg/kg, oxotremorine 0.5 mg/kg i.p.
  temperature (oxotremorine-induced hypothermia): very partial antagonism against the hypothermia produced by oxotremorine
Mice [15]
  number of incorrect moves (four-plate test): does not produce an increase in the number of incorrect moves
Rats [4]; i.p., 256 mg/kg
  amphetamine-induced stereotypies: lengthening of the duration of the amphetamine-induced stereotypies
Mice [5]; mice, 128 and 256 mg/kg
  spontaneous motility: moderate increase in the spontaneous motor activity
Mice [5]; mice, dose larger than 128 and 256 mg/kg
  spontaneous motility: effect disappears
Mice [16]
  motility reduced by habituation to the cage: causes a resumption of activity in animals habituated to their cage
[17]; mice in groups
  LD50: 1050 mg/kg
[17]; read-out: ratio LD50 (isolated mice)/LD50 (mice in groups)
  selectivity ratio: 1.43
[18]
  intensity of anticataleptic effect compared with amantadine: less intense than that of an 8 times smaller dose of amantadine
[18]; prochlorperazine 12.5 mg/kg i.p.
  cataleptigenic action of prochlorperazine: counteracts the cataleptigenic action of prochlorperazine
Mice [6]
  motor incoordination / incapacity: does not cause a major motor deficiency
